Laboratory results as given in patent US9328369B2, “Process for production of useful substance, and surfactant for use in the process” (priority 2009, dated 2016).

System: Escherichia coli (β)
Experiment: Screening of secretion efficiency, TorA expressing strain
Type: cell-based
Conditions: surfactant 1 wt %; 37° C., 1 hour; ELISA, anti-His-tag antibody
Source text: A torA gene of an Escherichia coli strain W3110 was amplified by the PCR method using primers 3 and 4 (Table 4). After being treated with restriction enzymes NdeI and BamHI, a PCR fragment was bound to an NdeI restriction enzyme site and a BamHI restriction enzyme site of a pET-22b plasmid (product of Novagen). Then, the plasmid was transformed into an AG1 (DE3) Escherichia coli strain to form a TorA expressing strain (β). Localization of the expressed TorA in a periplasmic fraction was confirmed by conducting an analysis based on the method disclosed in page 121 of Vol. 353 of METHODS IN ENZYMOLOGY (2002).
A pdxA gene of an Escherichia coli strain W3110 was amplified by the PCR method using primers 5 and 6 (Table 4). After being treated with restriction enzymes NdeI and BamHI, a PCR fragment was bound to an NdeI restriction enzyme site and a BamHI restriction enzyme site of a pET-22b plasmid (product of Novagen). Then, the plasmid was transformed into an AG1 (DE3) Escherichia coli strain to form a PdxA expressing strain (γ). Localization of the expressed PdxA in a cytoplasmic compartment was confirmed by conducting an analysis based on the method disclosed in page 121 of Vol. 353 of METHODS IN ENZYMOLOGY (2002). […]
(4) Then, the solution was allowed to stand at 37° C. for 1 hour. […] Here, the quantification of the recombinant protein in the resulting solution was carried out by ELISA assay with use of an anti-His-tag antibody. The sample prior to the centrifugation in the process (3) was treated with ultrasonic waves (200 W, 10 minutes) and the quantification of the recombinant protein therein was similarly carried out by ELISA assay with use of an anti-His-tag antibody. The ratio of lysed bacteria was obtained with use of Escherichia coli (γ), and the secretion efficiencies of the recombinant proteins of Escherichia coli (α) and (β) were calculated by using the following formula. […]
“Z” represents the ratio of lysed bacteria obtained with use of Escherichia coli (γ), which is determined by the following formula: Z=Z1/Z2. […]

Substance | Secretion efficiency (%) Escherichia coli (β) [%]
Cured palm oil fatty acid amidopropyl dimethyl aminoacetate betaine [A-6] | 85.4
Polyoxyethylene(3 mol)tridecyl ether sodium acetate [A-1] | 98.2
